Measured values from US20240167030A1, “METHODS AND COMPOSITIONS FOR ACCELERATING OLIGODENDROCYTE MATURATION” (Case Western Reserve University, priority 2021, published 2024).

How the values were obtained:
Format in all cases: cell-based, mouse
[1] = test system: SOX6 biomolecular condensates; assay: confocal immunofluorescence coupled with RNA-FISH of Sox6 condensates in intermediate oligodendrocytes; conditions: upon addition of the drug
Excerpt: Given the massive density of SOX6, an inherently disordered protein, at super-enhancer associated genes that increase sharply in intermediate oligodendrocytes and then decrease in myelinating oligodendrocytes, it was hypothesized that these regions represent SOX6 biomolecular condensates that stabilize, not inhibit, the intermediate oligodendrocyte state (FIGS. 8F and 8G) (Daneshvar et al., 2020; Henninger et al., 2020; Hnisz et al., 2017; Sabari et al., 2018). Performing high resolution confocal microscopy of immunofluorescence coupled with RNA-FISH confirmed Sox6 puncta in intermediate oligodendrocytes that co-localized with the predicted Sox6 aggregate gene Bcas1, whereas this co-localization was severely diminished at the non-aggregate gene Gapdh.

oligodendrocytes = assay: RNA-seq gene set enrichment analysis (GSEA) of SOX6 knockout oligodendrocytes; conditions: SOX6 knockout vs control (sgNTC) oligodendrocytes, day 3 of differentiation
Excerpt: (§1) Generation of mouse CRISPR KO OPCs: CRISPR knockout (KO) OPCs were created following a similar protocol used previously (Allan et al., 2020; Tripathi et al., 2019). In brief, guides were selected from the Brie library (Doench et al., 2016), cloned into the linearized CRISPRv2 backbone (Addgene 52961) (Sanjana et al., 2014), and sequence verified by sanger sequencing. HEK293T cells (Clonetech) were than transfected using lenti-X shots (manufacturer's protocol, Clonetech). Transfection media was replaced with N2B27 base media the following day. Lentivirus containing N2B27 was then collected after an additional 2 days, filtered, and supplemented with OPC growth factors PDGFA and FGF2 and added to OPCs at a ratio of 1:2 viral media to OPC growth media. The viral media was switched out for virus-free OPC growth the next day and allowed to recover for an additional 2 days. At this point, infected OPCs were selected for 96 hours in OPC growth media supplemented with a lethal dose of puromcyin (500 ng/mL). OPCs were allowed to recover in selection free media for at least 24 hours prior to being aliquoted and frozen down. For all experiments, infected CRISPR KO and non-targeting control OPCs were derived from the same original batch of EpiSC-derived mouse OPCs. qPCR was performed to validate a reduction of gene targets for each batch of CRISPR KO OPCs generated.
Bulk RNA-seq sample preparation and alignment: OPCs were lysed in TRIzol and RNA was isolated as described for qPCR. Purified RNA was then submitted to Novogene for library preparation and sequencing on the Illumina NovaSeq (150 bp paired end). For gene expression analysis, reads were aligned to the mm10 genome and quantified in transcripts per million (TPM) values using salmon 0.14.1 (github dot com slash COMBINE-lab slash salmon). Transcripts were summarized as gene-level TPM abundances with tximport. A gene with TPM>1 was considered expressed. Differential expression analysis was performed using DESEQ2 (bioconductor.org slash packages slash release slash bioc slash html slash DESeq2 dot html). Significant genes were called based on p-adj and fold change values as described in the results section.
RNA-seq was then performed on SOX6 knockout OPCs and differentiating oligodendrocyte cultures compared to non-targeting controls (FIGS. 10B and 11A). In agreement with binding at nearly all super-enhancers in OPCs, Sox6 knockout OPCs harbored a reduction in OPC signature genes and transcription factors such as Cspg4 and Sox10 (FIGS. 11A-11C). In differentiating oligodendrocytes, loss of SOX6 led to a reduction in Sox6 condensate gene expression (FIGS. 10B, 10C, and 11D). In agreement with these condensate genes stabilizing genes transiently expressed by intermediate oligodendrocytes, SOX6 knockout oligodendrocytes harbored a significant reduction in intermediate oligodendrocyte gene expression (FIGS. 10D and 11E).

SOX6 = assay: Western blot of SOX6 in CRISPR-Cas9 knockout OPCs; conditions: knockout OPCs compared to non-targeting control (sgNTC)
Excerpt: as §1, with “At this point, infected OPCs were selected for 96 hours in OPC growth media supplemented with a lethal dose of puromcyin (500 ng/mL). OPCs were allowed to recover in selection free media for at least 24 hours prior to being aliquoted and frozen down. For all experiments, infected CRISPR KO and non-targeting control OPCs were derived from the same original batch of EpiSC-derived mouse OPCs. qPCR was performed to validate a reduction of gene targets for each batch of CRISPR KO OPCs generated.” left out
Western blot: For cell culture derived protein samples, at least 1 million OPCs were collected and lysed in RIPA buffer (Sigma) supplemented with protease and phosphatase inhibitor (78441, Thermo Fisher) for at least 15 minutes and cleared by centrifugation at 13,000 g at 4° C. for 15 minutes. Protein concentrations were determined using the Bradford assay (Bio-Rad Laboratories). […] Membranes were then imaged and analyzed using Image Studio™ software. […]

Compound | effect on Sox6 biomolecular condensates [1] | GSEA of SOX6 aggregate (condensate) genes (oligodendrocytes) | GSEA of in vivo OPC signature genes (oligodendrocytes) | GSEA of in vivo intermediate oligodendrocyte signature genes (oligodendrocytes) | GSEA of in vivo myelinating oligodendrocyte signature genes (oligodendrocytes) | SOX6 expression (SOX6)
Cc1sc2c(c1C)C(c1ccc(Cl)cc1)=N[C@@H](CC(=O)OC(C)(C)C)c1nnc(C)n1-2 [JQ1] | dissolved | – | – | – | – | –
sgSox6 g2: single guide RNA for CRISPR-Cas9 SOX6 knockout, sequence AGAACACGCTTTGAGAACCT (listed as DNA, chemistry not given here) | – | significant depletion | significant depletion | significant depletion | enrichment | strong reduction
sgSox6 g1: single guide RNA for CRISPR-Cas9 SOX6 knockout, sequence TTGACGGAATGAACTGTACG (listed as DNA, chemistry not given here) | – | significant depletion | significant depletion | significant depletion | enrichment | strong reduction
